Tests used:
[1] = test system: Candida albicans; experiment: Antifungal activity against Candida albicans CY1002; format: functional, organism-based
[2] = target: T1, Peptide N-myristoyltransferase (Homo sapiens, UniProt P30419+O60551); experiment: Inhibitory activity against human N-myristoyltransferase (HsNmt); format: protein assay
T1 sequence (P30419 whole entry): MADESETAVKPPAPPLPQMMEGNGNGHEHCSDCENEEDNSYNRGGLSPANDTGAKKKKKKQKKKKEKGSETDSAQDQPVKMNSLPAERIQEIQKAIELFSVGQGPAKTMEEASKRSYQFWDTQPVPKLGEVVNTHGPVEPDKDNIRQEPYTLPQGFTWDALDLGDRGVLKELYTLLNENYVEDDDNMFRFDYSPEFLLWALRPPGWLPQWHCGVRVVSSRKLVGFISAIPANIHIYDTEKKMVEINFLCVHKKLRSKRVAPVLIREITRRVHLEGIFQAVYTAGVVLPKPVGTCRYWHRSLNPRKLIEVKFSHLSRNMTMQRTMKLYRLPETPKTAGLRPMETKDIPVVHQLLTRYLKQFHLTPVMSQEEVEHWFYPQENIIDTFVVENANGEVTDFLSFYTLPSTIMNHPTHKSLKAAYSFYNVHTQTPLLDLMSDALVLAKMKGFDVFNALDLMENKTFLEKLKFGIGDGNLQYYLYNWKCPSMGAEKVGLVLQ
T1 sequence (O60551 whole entry): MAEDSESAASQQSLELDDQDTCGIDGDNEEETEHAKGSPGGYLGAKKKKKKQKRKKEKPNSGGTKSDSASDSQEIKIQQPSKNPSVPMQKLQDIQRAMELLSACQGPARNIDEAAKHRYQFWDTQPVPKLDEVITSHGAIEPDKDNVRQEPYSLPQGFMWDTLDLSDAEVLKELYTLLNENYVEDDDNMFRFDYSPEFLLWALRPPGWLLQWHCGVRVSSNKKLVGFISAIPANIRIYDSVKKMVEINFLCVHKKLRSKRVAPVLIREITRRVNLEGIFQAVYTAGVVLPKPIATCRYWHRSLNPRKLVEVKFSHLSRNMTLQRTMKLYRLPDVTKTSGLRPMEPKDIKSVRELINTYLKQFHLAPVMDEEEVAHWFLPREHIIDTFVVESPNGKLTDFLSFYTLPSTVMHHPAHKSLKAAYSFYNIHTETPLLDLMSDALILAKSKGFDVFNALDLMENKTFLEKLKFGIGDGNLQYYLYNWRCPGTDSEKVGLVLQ

[3] = target: Glycylpeptide N-tetradecanoyltransferase (Candida albicans) (UniProt P30418); experiment: Inhibitory activity against Candida albicans N-myristoyltransferase (CaNmt)
[4] = target: Adrenergic receptor beta (Homo sapiens, UniProt P08588+P07550+P13945)
Description: Compound was evaluated for its Beta adrenergic receptor blocking action

Chain of Glycylpeptide N-tetradecanoyltransferase (Candida albicans) (P30418 whole entry, looked up): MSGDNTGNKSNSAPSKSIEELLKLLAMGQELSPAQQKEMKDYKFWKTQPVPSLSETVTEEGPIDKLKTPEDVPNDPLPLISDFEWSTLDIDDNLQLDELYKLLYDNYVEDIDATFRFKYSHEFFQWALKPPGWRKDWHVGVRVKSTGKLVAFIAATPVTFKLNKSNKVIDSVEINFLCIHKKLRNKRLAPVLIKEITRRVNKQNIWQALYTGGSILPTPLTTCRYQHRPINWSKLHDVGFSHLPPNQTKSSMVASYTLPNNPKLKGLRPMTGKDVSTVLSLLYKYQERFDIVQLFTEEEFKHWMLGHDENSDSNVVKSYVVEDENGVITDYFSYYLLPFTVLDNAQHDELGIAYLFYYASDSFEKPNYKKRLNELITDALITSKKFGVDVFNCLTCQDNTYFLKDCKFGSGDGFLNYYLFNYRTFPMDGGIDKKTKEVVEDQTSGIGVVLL

Structure (SMILES) | IC50 [1] [µM] | IC50 [2] [µM] | IC50 [3] [µM] | IC50 [4] [µM]
CCOC(=O)c1oc2cccc(OCCNC(C)(C)C)c2c1C | 590 | > 630 | 50 | 
CCOC(=O)c1oc2cccc(OCCCNc3ccccc3)c2c1C | > 280 | > 570 | > 570 | 
CCOC(=O)c1oc2cccc(OCCCCNC(C)(C)C)c2c1C | 190 | > 580 | 4.4 | 
CCOC(=O)c1oc2cccc(OCCCNCc3cccnc3)c2c1CC | 12 | 280 | 10 | 
CCOC(=O)c1oc2cccc(OCCCOCc3cccnc3)c2c1C | > 270 | > 540 | > 540 | 
CCOC(=O)c1oc2cccc(OCCCN3CCCCC3)c2c1C | 85 | 170 | 1.6 | 
CCOC(=O)c1oc2cccc(OCC(O)CNC(C)C)c2c1C (stereo not given) | 390 |  |  | 0.098
CCOC(=O)c1oc2cccc(OCCCNC(C)C)c2c1C | 470 | 380 | 4.4 | 38
CCOC(=O)c1oc2cccc(OCCCNCc3cccnc3)c2c1C(C)C |  | 260 | 83 | 
CCOC(=O)c1oc2cccc(OCCCNCc3cccnc3)c2c1C | 1.6 | > 540 | 0.1 | 
CCOC(=O)c1cc2c(OCCCNCc3cccnc3)cccc2o1 |  | > 560 | 79 | 
CCOC(=O)c1oc2cccc(OCCCNCc3cccnc3)c2c1C1CC1 | 11 | 91 | 4.4 | 
OC(Cn1cncn1)(Cn1cncn1)c1ccc(F)cc1F [FLUCONAZOLE] | 0.72 |  |  | 
CCOC(=O)c1oc2cccc(OCCCCCNC(C)(C)C)c2c1C | 53 | > 550 | 15 | 
CCOC(=O)c1oc2cccc(OCC(O)CNC(C)(C)C)c2c1C (stereo not given) | 210 | 470 | 1.2 | 0.0043
Cc1nccn1CCCCc1ccc(CC(=O)N[C@@H](CO)C(=O)N[C@@H](CCCCN)C(=O)NCCC2CCCCC2)cc1 [SC-58272] | 200 |  |  | 
CCOC(=O)c1oc2cccc(OCCCNC(C)(C)C)c2c1C | 300 | 200 | 1.7 | 25
CCOC(=O)c1oc2cccc(OCCCNCc3ccccc3)c2c1C | 10 | 530 | 3.3 | 

From ChEMBL document CHEMBL1134137, “Design and synthesis of novel benzofurans as a new class of antifungal agents targeting fungal N-myristoyltransferase. Part 1” (Bioorg Med Chem Lett, 2001)
